“Also recorded” adds a separate entry of the source.
Tests used:
[1] = test system: MCL1 splicing (ES/IR events) in PHF5A WT expressing HCT116 cells; assay: Taqman gene expression analysis of MCL1 isoforms, PHF5A WT cells; format: cell-based; conditions: 4 hour treatment
Procedure: (§1) 8000 cells of indicated genotypes were seeded in each well of 96-well plate and allowed to settle overnight. On the second day, 11 points serial dilution (1:4 fold dilution across) of indicated compound with a top dosage of 10 μM final was added to the culturing medium. 4 hour post compound addition, culturing medium was decanted and washed once with PBS. PBS was then decanted completely from the plate and Lysis buffer (plus DNase I) from TaqMan Gene Expression Cells-to-CT Kit (Thermo Fisher, cat # AM1729) was added according to the manual. After 5 mins incubation at room temperature on the shaker, stop solution was added to each well and incubated for 2 min. Reverse transcription was set up immediately using the Cells-to-CT Kit and cDNAs were used for quantitative real time PCR analysis using Viia7 (Thermo Fisher). Each reaction is multiplexed with a FAM labelled probe targeting specific target gene splicing isoforms and a VIC labelled probe targeted 18S rRNA as loading control. Therefore, the FAM Ct value in each well was first normalized to the VIC Ct value in the same well before further normalization to the FAM/VIC ratio of DMSO treated control samples to calculate fold change over DMSO. Graphs were generated using Graphpad Prism 6, n=2. Taqman gene expression probes used in these assays are: […]

[2] = target: T1, SF3B1 R1074H (Homo sapiens, UniProt O75533+Q7RTV0, R1074H); conditions: Yokoi et al. 2011; cited from earlier work
T1 construct: endogenous in cells; WiDr clones in the cited Yokoi et al. work

[3] = test system: PHF5A Y36C over-expressing PANC0504 cells; assay: Growth inhibition in PANC0504 cells over-expressing PHF5A Y36C; format: cell-based
Procedure: Parental HCT116 cells were obtained from ATCC and cultured in RPMI 1640 medium (Thermo Fisher, GIBCO #11875) supplemented with 10% FBS. Parental Panc0504 cells were obtained from ATCC and cultured in GIBCO RPMI 1640 medium (Thermo Fisher, GIBCO #11875) supplemented with glucose (to 4.5 g/L final), HEPES (10 mM final), sodium pyruvate (1 mM final), human insulin (10 μg/ml final) and 15% FBS. Cell line authentication was achieved by genetic profiling using polymorphic short tandem repeat (STR) loci (ATCC). All cell lines were free of mycoplasma contamination. […]
(§2) For CellTiter-Glo analysis, 500 cells were seeded in each well of a 384-well plate the day before compound addition. […] 72 hours post compound addition; CellTiter-Glo reagent was added to the medium, incubated and assayed on EnVision Multilabel Reader (PerkinElmer). The luminescence value from each treatment sample was normalized to the average value of the respective DMSO control. […] For heatmap summarization of IC50 shifts, IC50 value were extracted from dosage response curves and the fold changes of IC50 values in PHF5A variants expressing lines over that of the WT lines were calculated and plotted using TIBCO Spotfire software. […]

[4] = test system: MCL1 splicing (ES/IR events) in PHF5A Y36C expressing HCT116 cells; assay: Taqman gene expression analysis of MCL1 isoforms, PHF5A Y36C cells; format: cell-based; conditions: PHF5A-Y36C cells compared to WT, increasing dosage
Procedure: as §1

[5] = test system: HCT116 resistant clones carrying SF3B1 (R1074H, V1078A/I) or PHF5A Y36C mutations; assay: CellTiter-Glo growth inhibition profiling of E7107/herboxidiene resistant HCT116 clones; format: cell-based; conditions: 72 hour CellTiter-Glo, HCT116 resistant clones vs parental
Procedure: 2.5 million HCT116 cells were seeded in each 10 cm dish and treated with indicated dosages of splicing modulators for 2 weeks. Compounds were refreshed every 4 days. When needed, confluent dishes were split 1:3 and cells were allowed to recover overnight without splicing modulator treatment after re-seeding. At the end of the compound selection period, surviving individual clones were picked and transferred to 12-well plates. Individual resistant clones were further expanded without splicing modulator treatment and 1 million cells from each clone were pelleted for genomic DNA extraction using the DNeasy Blood & Tissue Kit from Qiagen. Whole exome sequencing (WXS) libraries were generated by Novogene Corporation using Agilent SureSelect Human All Exon V6 kit and sequenced on Illumina HiSeq platform. 12G raw data were gathered for each sample. WXS reads were then aligned to hg19 by BWA-MEM (Shi et al., Nature biotechnology 33, 661-7 (2015)) and somatic mutations were identified with MuTect2 (Schenone et al., Nature chemical biology 9, 232-40 (2013)) through Sentieon pipeline (Wacker et al., Nature chemical biology 8, 235-7 (2012)) by pairing resistant clone with parental cell lines. As the resistant clones for WXS were selected, the allele frequencies for the mutations which are responsible for the resistance should be high. Non-silent mutations (among the H3 curated spliceosome genes) with allele frequency higher than 0.2 were focused on.
For CellTiter-Glo analysis, 500 cells were seeded in each well of a 384-well plate the day before compound addition. An 11 part serial dilution was used starting with a top final dosage of 10 μM for ten additional doses. DMSO percentage was maintained throughout and a DMSO only control was included. 72 hours post compound addition; CellTiter-Glo reagent was added to the medium, incubated and assayed on EnVision Multilabel Reader (PerkinElmer). The luminescence value from each treatment sample was normalized to the average value of the respective DMSO control. The dosage response curve plots were generated using Graphpad Prism 6 and fit using nonlinear regression analysis and the log (inhibitor) vs. response—Variable slope (four parameters). For heatmap summarization of IC50 shifts, IC50 value were extracted from dosage response curves and the fold changes of IC50 values in PHF5A variants expressing lines over that of the WT lines were calculated and plotted using TIBCO Spotfire software. For IC50s greater than the top dosage, the values were arbitrarily set at 10 μM. Unsupervised clustering analysis was performed in TIBCO Spotfire using the following default parameters: Clustering method: UPGMA; Distance measure: Euclidean; Ordering weight: Average value; Normalization: (None); Empty value replacement: Constant value: 0.

[6] = test system: HCT116 cells; assay: CellTiter-Glo growth inhibition, parental HCT116; format: cell-based; conditions: in HCT116
Procedure: Parental HCT116 cells were obtained from ATCC and cultured in RPMI 1640 medium (Thermo Fisher, GIBCO #11875) supplemented with 10% FBS. Parental Panc0504 cells were obtained from ATCC and cultured in GIBCO RPMI 1640 medium (Thermo Fisher, GIBCO #11875) supplemented with glucose (to 4.5 g/L final), HEPES (10 mM final), sodium pyruvate (1 mM final), human insulin (10 μg/ml final) and 15% FBS. Cell line authentication was achieved by genetic profiling using polymorphic short tandem repeat (STR) loci (ATCC). All cell lines were free of mycoplasma contamination. Lenti-X-293T cells (Clontech Laboratories, Inc. Cat #632180), a cell line for lentiviral packaging, was maintained in Dulbecco's modified Eagle's medium (Thermo Fisher, GIBCO #11965) containing 10% fetal bovine serum and 4 mM L-glutamine. WT PHF5A cDNA was obtained from Genecopoeia and cloned into a pDONR 221 vector (Thermo Fisher). Sequence verified positive clones were cloned into pLenti6.3N5 vector (Thermo Fisher) through LR recombination. Mutagenesis of Y36 and V37 were carried using Agilent Quickchange II kit following manufacturer's recommendation using the PHF5A WT plasmid. All primers used for mutagenesis were designed used the QuikChange Primer Design tool by Agilent. Verified positive clones of PHF5A Y36 or V37 variants were used for lentivirus production using X293T cells. Parental HCT116 cells and Panc0504 cells were then infected with virus containing medium and selected with Blasticidin S (Thermo Fisher) at 10 μg/ml for one week. Engineered cell lines were maintained in the same medium without antibiotics. The following primary antibodies were used at 1:1000 dilution for western blot analysis in LI-COR buffer (LI-COR): α-SF3B1 mouse monoclonal antibody (MBL, D221-3), α-SF3B3 rabbit polyclonal antibody (Protein Tech, 14577-1-AP), α-SF3B4 goat polyclonal antibody (Santa Cruz, 14276), α-SF3B6/p14 rabbit polyclonal antibody (Protein Tech, 12379-1-AP), α-PHF5A rabbit polyclonal antibody (Protein Tech, 15554-1-AP). α-GAPDH rabbit polyclonal antibody (Sigma, G9545) was used at 1:10,000. […]
as §2

[7] = test system: global splicing in PHF5A Y36C expressing HCT116 cells; assay: Whole transcriptome RNA-seq differential splicing, PHF5A Y36C cells; format: cell-based
Procedure: Either PHF5A WT or Y36C mutant overexpressing cells were treated with either DMSO or E7107 (100 nM and 10 μM) for 6 hours in quintuplicate before lysed in TRIzol reagent (Thermo Fisher). After phase separation, top aqueous phase was further processed using MagMAX™-96 Total RNA Isolation Kit (Thermo Fisher, AM1830) for RNA extraction. RNA quality was assessed using Agilent tapestation with RNA screen tape. RNA-seq libraries were prepared by Beijing Genomic Institute (BGI) and sequenced on Illumina Hiseq 4000 for 6G clean reads per sample. RNA-seq reads were aligned to hg19 by STAR (Dobin et al., Bioinformatics 29, 15-21 (2013)) and raw junction counts generated by STAR were used for calculating percent spliced in (PSI) to quantify splice junction usage relative to all other splice junctions that share the same splice site as described before (Darman et al., Cell reports 13, 1033-45 (2015)). Differential PSI were assessed between a pair of sample groups using moderated t-test defined in limma package (Smyth, Statistical applications in genetics and molecular biology 3, Article3 (2004)) in Bioconductor. The statistical p-values were corrected using the Benjamini-Hochberg procedure and q-values less than or equal to 0.05 were considered statistically significant. […]

[8] = test system: global splicing in PHF5A WT expressing HCT116 cells; assay: Whole transcriptome RNA-seq differential splicing, PHF5A WT cells; format: cell-based
Procedure: Either PHF5A WT or Y36C mutant overexpressing cells were treated with either DMSO or E7107 (100 nM and 10 μM) for 6 hours in quintuplicate before lysed in TRIzol reagent (Thermo Fisher). After phase separation, top aqueous phase was further processed using MagMAX™-96 Total RNA Isolation Kit (Thermo Fisher, AM1830) for RNA extraction. RNA quality was assessed using Agilent tapestation with RNA screen tape. RNA-seq libraries were prepared by Beijing Genomic Institute (BGI) and sequenced on Illumina Hiseq 4000 for 6G clean reads per sample. RNA-seq reads were aligned to hg19 by STAR (Dobin et al., Bioinformatics 29, 15-21 (2013)) and raw junction counts generated by STAR were used for calculating percent spliced in (PSI) to quantify splice junction usage relative to all other splice junctions that share the same splice site as described before (Darman et al., Cell reports 13, 1033-45 (2015)). Differential PSI were assessed between a pair of sample groups using moderated t-test defined in limma package (Smyth, Statistical applications in genetics and molecular biology 3, Article3 (2004)) in Bioconductor. The statistical p-values were corrected using the Benjamini-Hochberg procedure and q-values less than or equal to 0.05 were considered statistically significant. Gene IDs associated with significant splicing changes upon E7107 treatment as compared to DMSO in either PHF5A WT or Y36C cells were used for generation of the Venn Diagram using online tool (http://bioinformatics.psb.ugent.be/webtools/Venn/). PHF5A WT or Y36C specific genes identified from the Venn Diagram analysis were then subject to Gene Set Enrichment Analysis (GSEA) (http://software.broadinstitute.org/gsea/msigdb/annotate.jsp) using the Kyoto Encyclopedia of Genes and Genomes (KEGG) pathway database.
The number of reads which cover the splice junction which excludes a given cassette exon (exon skipping reads) were compared with both the number of spliced reads which share its 3′ splice site yet have an alternative 5′ splice site bordering the cassette exon (exon inclusion reads) and the number of reads which cross the exon-intron boundary at that same 3′ splice site (intron retention reads.) These counts were summed and their fractions from the percent spliced in (PSI) for the exon skipping event, the exon inclusion event, and the intron retention event, respectively, at that locus. The PSI for all significant exon skipping events derived from the comparison between 100 nM E7107 treatment in PHF5A Y36C cells and the respective DMSO controls (3883 events) and the PSI for the intron retention junction at the same locus were plotted. For all other treatments, the PSI of the exon skipping junction and the intron retention junction for each locus were plotted in the same order. PSI is averaged over samples in quintuplicate.

Molecule | dose-dependent induction of MCL1 ES and IR events [1] | resistant phenotype upon PHF5A Y36C over-expression [3] | resistance conferred by mutations in resistant clones (growth inhibition profiling) [5] | GI50 ([6]; Homo sapiens, HCT-116) [nM] | other results
CC[C@H](O)[C@@H](C)[C@H]1O[C@@H]1C[C@@](C)(O)/C=C/C=C(\C)C1OC(=O)C[C@H](O)CC[C@@](C)(O)[C@@H](OC(=O)N2CCN(C3CCCCCC3)CC2)/C=C/[C@@H]1C (stereo partly drawn) [Compound E7107] | “earlier” induction of MCL1 ES events than IR events at lower doses | partial resistant phenotype | SF3B1-R1074H mutation conferred the most robust resistance | 1.5 | effect of SF3B1 R1074H substitution on compound activity [2]: almost completely abolishes the splicing-modulating and anti-proliferative effects; MCL1-S production (ES events) [4]: enhanced to a higher level; differential splicing events vs DMSO ([7]; 100 nM E7107): the overall amount of IR events and their average fold change were greatly reduced; also recorded: the number of compound induced exon-skipping (ES) events was increased; MCL1 isoform events in RNA-seq sashimi plots ([7]; E7107 treatment): mainly ES events were observed yielding the MCL1-S form; number of introns with induced aberrant splicing ([8]; E7107, FIG. 4A): approximately 20,000; number of the 3883 Y36C related ES junctions showing reduced ES PSI and increased IR PSI in WT cells ([8]; E7107 treated WT vs Y36C cells): 2470; share of Y36C related ES junctions showing reduced ES PSI and increased IR PSI in WT cells ([8]; E7107 treated WT vs Y36C cells): ~64%; differential splicing events vs DMSO ([8]; PHF5A WT cells, 100 nM E7107): intron-retention (IR) events were predominant; MCL1 isoform events in RNA-seq sashimi plots ([8]; PHF5A WT cells, E7107 treatment): IR was the dominant event observed
CC(C)C[C@H](NC(=O)[C@H](Cc1ccccc1)NC(=O)c1cnccn1)B(O)O [bortezomib] |  | not | did not affect the cell lines sensitivity |  | 
CO[C@H]([C@@H](C)[C@H]1O[C@]1(C)C[C@H](C)/C=C/C=C(\C)[C@H]1O[C@@H](CC(=O)O)CC[C@@H]1C)[C@@H](C)O [herboxidiene] | even more pronounced effect |  | PHF5A-Y36C mutation rendered more resistance | 7.6 | 
sudemycin D6 |  |  | show resistance to the Y36C clone |  | 
CNC(=O)O[C@@H](C)/C=C\C(=O)N[C@H]1CC[C@@H](C/C=C(C)/C=C/[C@@H]2C[C@]3(CO3)CC(C)(C)O2)CC1 [sudemycin D6] | IR events were not observed |  | SF3B1-R1074H mutation also conferred better resistance | 149 | 
CO[C@]1(C)C[C@@]2(CO2)[C@H](O)[C@@H](/C=C/C(C)=C/C[C@@H]2O[C@H](C)[C@H](NC(=O)/C=C\[C@H](C)OC(C)=O)C[C@@H]2C)O1 [spliceostatin A] |  |  | SF3B1-R1074H mutation also conferred better resistance; also recorded: show resistance to the Y36C clone |  | GI50 [6]: 0.76 nM

Source: patent US20200190593A1, “SPLICEOSOME MUTATIONS AND USES THEREOF” (EISAI R&D MANAGEMENT CO., LTD., priority 2017, published 2020)
